# Measured values from patent publication US12077503B2, “Substituted cyclic amides and their use as herbicides” (FMC CORPORATION, priority 2015, dated 2024).
# How the values were obtained:
# Assay type in all cases: in vivo
# [1] = test system: nutsedge, yellow (yellow nutsedge, Cyperus esculentus); assay: Test C preemergence; conditions: for Plant response rating, Nutsedge, Yellow: scale 0 to 100, 0 no effect, 100 complete control
# How it was run: (§1)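 Seeds in loam-sand soil treated preemergence, or plants in peat-based medium sprayed postemergence at 2–18 cm (1- to 4-leaf stage), with compound in a non-phytotoxic solvent mixture containing surfactant. Greenhouse-held 13–15 d, then visually rated against controls on a 0–100 scale (0 = no effect, 100 = complete control); dash = not tested.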
# [2] = test system: oilseed rape (Brassica napus); assay: Test C preemergence; conditions: for Plant response rating, Oilseed Rape: scale 0 to 100, 0 no effect, 100 complete control
# How it was run: as §1
# [3] = test system: barnyardgrass (Echinochloa crus-galli); assay: Test C preemergence; conditions: for Plant response rating, Barnyardgrass: scale 0 to 100, 0 no effect, 100 complete control
# How it was run: as §1
# [4] = test system: ryegrass, Italian (Italian ryegrass, Lolium multiflorum); assay: Test C preemergence; conditions: for Plant response rating, Ryegrass, Italian: scale 0 to 100, 0 no effect, 100 complete control
# How it was run: as §1
# [5] = test system: corn (Zea mays); assay: Test C preemergence; conditions: for Plant response rating, Corn: scale 0 to 100, 0 no effect, 100 complete control
# How it was run: as §1
# [6] = test system: pigweed (Amaranthus retroflexus); assay: Test C preemergence; conditions: for Plant response rating, Pigweed: scale 0 to 100, 0 no effect, 100 complete control
# How it was run: as §1
# [7] = test system: morningglory (Ipomoea coccinea); assay: Test C preemergence; conditions: for Plant response rating, Morningglory: scale 0 to 100, 0 no effect, 100 complete control
# How it was run: as §1
# [8] = test system: waterhemp (common waterhemp, Amaranthus rudis); assay: Test C preemergence; conditions: for Plant response rating, Waterhemp: scale 0 to 100, 0 no effect, 100 complete control
# How it was run: as §1
# [9] = test system: wheat (winter wheat, Triticum aestivum); assay: Test C preemergence; conditions: for Plant response rating, Wheat: scale 0 to 100, 0 no effect, 100 complete control
# How it was run: as §1
# [10] = test system: blackgrass (Alopecurus myosuroides); assay: Test C preemergence; conditions: for Plant response rating, Blackgrass: scale 0 to 100, 0 no effect, 100 complete control
# How it was run: as §1
# [11] = test system: crabgrass, large (large crabgrass, Digitaria sanguinalis); assay: Test C preemergence; conditions: for Plant response rating, Crabgrass, Large: scale 0 to 100, 0 no effect, 100 complete control
# How it was run: as §1
# [12] = test system: soybean (Glycine max); assay: Test C preemergence; conditions: for Plant response rating, Soybean: scale 0 to 100, 0 no effect, 100 complete control
# How it was run: as §1
# [13] = test system: foxtail, giant (giant foxtail, Setaria faberii); assay: Test C preemergence; conditions: for Plant response rating, Foxtail, Giant: scale 0 to 100, 0 no effect, 100 complete control
# How it was run: as §1
# [14] = test system: Galium (catchweed bedstraw, Galium aparine); assay: Test C preemergence; conditions: for Plant response rating, Galium: scale 0 to 100, 0 no effect, 100 complete control
# How it was run: as §1
# [15] = test system: johnsongrass (Sorghum halepense); assay: Test C preemergence; conditions: for Plant response rating, Johnsongrass: scale 0 to 100, 0 no effect, 100 complete control
# How it was run: as §1
# [16] = test system: lambsquarters (Chenopodium album); assay: Test C preemergence; conditions: for Plant response rating, Lambsquarters: scale 0 to 100, 0 no effect, 100 complete control
# How it was run: as §1
# [17] = test system: velvetleaf (Abutilon theophrasti); assay: Test C preemergence; conditions: for Plant response rating, Velvetleaf: scale 0 to 100, 0 no effect, 100 complete control
# How it was run: as §1
# [18] = test system: ryegrass, Italian (Italian ryegrass, Lolium multiflorum); assay: Test C postemergence; conditions: scale 0 to 100, 0 no effect, 100 complete control
# Text: (§2) Seeds of plant species selected from blackgrass (Alopecurus myosuroides), ryegrass, Italian (Italian ryegrass, Lolium multiflorum), wheat (winter wheat, Triticum aestivum), Galium (catchweed bedstraw, Galium aparine), corn (Zea mays), crabgrass, large (large crabgrass, Digitaria sanguinalis), foxtail, giant (giant foxtail, Setaria faberii), johnsongrass (Sorghum halepense), lambsquarters (Chenopodium album), morningglory (Ipomoea coccinea), nutsedge, yellow (yellow nutsedge, Cyperus esculentus), pigweed (Amaranthus retroflexus), ragweed (common ragweed, Ambrosia elatior), soybean (Glycine max), barnyardgrass (Echinochloa crus-galli), oilseed rape (Brassica napus), waterhemp (common waterhemp, Amaranthus rudis) and velvetleaf (Abutilon theophrasti) were planted into a blend of loam soil and sand and treated preemergence with test chemicals formulated in a non-phytotoxic solvent mixture which included a surfactant.
# (§3) At the same time, plants selected from these crop and weed species and also Kochia (Kochia scoparia), oat, wild (wild oat, Avena fatua), and chickweed (common chickweed, Stellaria media) were planted in pots containing Sunshine Redi-Earth® planting medium comprising spaghnum peat moss, vermiculite, starter nutrients and dolomitic limestone and treated with postemergence applications of test chemicals formulated in the same manner. Plants ranged in height from 2 to 18 cm (1- to 4-leaf stage) for postemergence treatments. Treated plants and controls were maintained in a greenhouse for 13 to 15 d, after which time all species were compared to controls and visually evaluated. Plant response ratings, summarized in Table C, are based on a scale of 0 to 100 where 0 is no effect and 100 is complete control. A dash (-) response means no test result.
# [19] = test system: corn (Zea mays); assay: Test C postemergence; conditions: scale 0 to 100, 0 no effect, 100 complete control
# Text: as §2, §3
# [20] = test system: soybean (Glycine max); assay: Test C postemergence; conditions: scale 0 to 100, 0 no effect, 100 complete control
# Text: as §2, §3
# [21] = test system: foxtail, giant (giant foxtail, Setaria faberii); assay: Test C postemergence; conditions: scale 0 to 100, 0 no effect, 100 complete control
# Text: as §2, §3
# [22] = test system: johnsongrass (Sorghum halepense); assay: Test C postemergence; conditions: scale 0 to 100, 0 no effect, 100 complete control
# Text: as §2, §3
# [23] = 31 g ai/ha, 0 is no effect, 100 is complete control
smiles,measurement,setting,value
CN1CC(c2ccc(F)c(F)c2)C(C(=O)Nc2ccccc2C(F)(F)F)C1=O (stereo not shown) [Compound 641],"Plant response rating (scale of 0 to 100), Nutsedge, Yellow",[1]; [23],0
same,"Plant response rating, Nutsedge, Yellow",[1]; 62 g ai/ha,0
same,"Plant response rating, Nutsedge, Yellow",[1]; 125 g ai/ha,0
same,"Plant response rating, Nutsedge, Yellow",[1]; 250 g ai/ha,0
same,"Plant response rating (scale of 0 to 100), Oilseed Rape",[2]; [23],80
same,"Plant response rating, Oilseed Rape",[2]; 62 g ai/ha,85
same,"Plant response rating, Oilseed Rape",[2]; 125 g ai/ha,85
same,"Plant response rating, Oilseed Rape",[2]; 250 g ai/ha,90
same,"Plant response rating (scale of 0 to 100), Barnyardgrass",[3]; [23],85
same,"Plant response rating, Barnyardgrass",[3]; 62 g ai/ha,90
same,"Plant response rating, Barnyardgrass",[3]; 125 g ai/ha,90
same,"Plant response rating, Barnyardgrass",[3]; 250 g ai/ha,95
same,"Plant response rating (scale of 0 to 100), Ryegrass, Italian",[4]; [23],0
same,"Plant response rating, Ryegrass, Italian",[4]; 62 g ai/ha,10
same,"Plant response rating, Ryegrass, Italian",[4]; 125 g ai/ha,35
same,"Plant response rating, Ryegrass, Italian",[4]; 250 g ai/ha,70
same,"Plant response rating (scale of 0 to 100), Corn",[5]; [23],0
same,"Plant response rating, Corn",[5]; 62 g ai/ha,0
same,"Plant response rating, Corn",[5]; 125 g ai/ha,0
same,"Plant response rating, Corn",[5]; 250 g ai/ha,10
same,"Plant response rating (scale of 0 to 100), Pigweed",[6]; [23],0
same,"Plant response rating, Pigweed",[6]; 62 g ai/ha,25
same,"Plant response rating, Pigweed",[6]; 125 g ai/ha,60
same,"Plant response rating, Pigweed",[6]; 250 g ai/ha,70
same,"Plant response rating (scale of 0 to 100), Morningglory",[7]; [23],0
same,"Plant response rating, Morningglory",[7]; 62 g ai/ha,0
same,"Plant response rating, Morningglory",[7]; 125 g ai/ha,0
same,"Plant response rating, Morningglory",[7]; 250 g ai/ha,0
same,"Plant response rating (scale of 0 to 100), Waterhemp",[8]; [23],0
same,"Plant response rating, Waterhemp",[8]; 62 g ai/ha,0
same,"Plant response rating, Waterhemp",[8]; 125 g ai/ha,45
same,"Plant response rating, Waterhemp",[8]; 250 g ai/ha,70
same,"Plant response rating (scale of 0 to 100), Wheat",[9]; [23],5
same,"Plant response rating, Wheat",[9]; 62 g ai/ha,0
same,"Plant response rating, Wheat",[9]; 125 g ai/ha,35
same,"Plant response rating, Wheat",[9]; 250 g ai/ha,70
same,"Plant response rating (scale of 0 to 100), Blackgrass",[10]; [23],0
same,"Plant response rating, Blackgrass",[10]; 62 g ai/ha,45
same,"Plant response rating, Blackgrass",[10]; 125 g ai/ha,30
same,"Plant response rating, Blackgrass",[10]; 250 g ai/ha,70
same,"Plant response rating (scale of 0 to 100), Crabgrass, Large",[11]; [23],98
same,"Plant response rating, Crabgrass, Large",[11]; 62 g ai/ha,100
same,"Plant response rating, Crabgrass, Large",[11]; 125 g ai/ha,100
same,"Plant response rating, Crabgrass, Large",[11]; 250 g ai/ha,100
same,"Plant response rating (scale of 0 to 100), Soybean",[12]; [23],0
same,"Plant response rating, Soybean",[12]; 62 g ai/ha,0
same,"Plant response rating, Soybean",[12]; 125 g ai/ha,10
same,"Plant response rating, Soybean",[12]; 250 g ai/ha,100
same,"Plant response rating (scale of 0 to 100), Foxtail, Giant",[13]; [23],90
same,"Plant response rating, Foxtail, Giant",[13]; 62 g ai/ha,90
same,"Plant response rating, Foxtail, Giant",[13]; 125 g ai/ha,90
same,"Plant response rating, Foxtail, Giant",[13]; 250 g ai/ha,95
same,"Plant response rating (scale of 0 to 100), Galium",[14]; [23],0
same,"Plant response rating, Galium",[14]; 62 g ai/ha,30
same,"Plant response rating, Galium",[14]; 125 g ai/ha,90
same,"Plant response rating, Galium",[14]; 250 g ai/ha,85
same,"Plant response rating (scale of 0 to 100), Johnsongrass",[15]; [23],0
same,"Plant response rating, Johnsongrass",[15]; 62 g ai/ha,0
same,"Plant response rating, Johnsongrass",[15]; 125 g ai/ha,10
same,"Plant response rating, Johnsongrass",[15]; 250 g ai/ha,60
same,"Plant response rating (scale of 0 to 100), Lambsquarters",[16]; [23],0
same,"Plant response rating, Lambsquarters",[16]; 62 g ai/ha,40
same,"Plant response rating, Lambsquarters",[16]; 125 g ai/ha,40
same,"Plant response rating, Lambsquarters",[16]; 250 g ai/ha,65
same,"Plant response rating (scale of 0 to 100), Velvetleaf",[17]; [23],0
same,"Plant response rating, Velvetleaf",[17]; 62 g ai/ha,35
same,"Plant response rating, Velvetleaf",[17]; 125 g ai/ha,25
same,"Plant response rating, Velvetleaf",[17]; 250 g ai/ha,45
same,"Plant response rating, Ryegrass, Italian",[18]; 31 g ai/ha,0
same,"Plant response rating, Ryegrass, Italian",[18]; 62 g ai/ha,0
same,"Plant response rating, Ryegrass, Italian",[18]; 125 g ai/ha,10
same,"Plant response rating, Ryegrass, Italian",[18]; 250 g ai/ha,10
same,"Plant response rating, Corn",[19]; 31 g ai/ha,0
same,"Plant response rating, Corn",[19]; 62 g ai/ha,0
same,"Plant response rating, Corn",[19]; 125 g ai/ha,0
same,"Plant response rating, Corn",[19]; 250 g ai/ha,10
same,"Plant response rating, Soybean",[20]; 31 g ai/ha,0
same,"Plant response rating, Soybean",[20]; 62 g ai/ha,0
same,"Plant response rating, Soybean",[20]; 125 g ai/ha,5
same,"Plant response rating, Soybean",[20]; 250 g ai/ha,15
same,"Plant response rating, Foxtail, Giant",[21]; 31 g ai/ha,0
same,"Plant response rating, Foxtail, Giant",[21]; 62 g ai/ha,10
same,"Plant response rating, Foxtail, Giant",[21]; 125 g ai/ha,65
same,"Plant response rating, Foxtail, Giant",[21]; 250 g ai/ha,80
same,"Plant response rating, Johnsongrass",[22]; 31 g ai/ha,0
same,"Plant response rating, Johnsongrass",[22]; 62 g ai/ha,0
same,"Plant response rating, Johnsongrass",[22]; 125 g ai/ha,0
same,"Plant response rating, Johnsongrass",[22]; 250 g ai/ha,0
